According to ChEMBL document CHEMBL4043071, “Neuroprotective Caffeoylquinic Acid Derivatives from the Flowers of Chrysanthemum morifolium” (J Nat Prod, 2017):
Active and inactive are the calls of the source. No cut-off for these calls is given here.

What was measured:
SH-SY5Y [1] = experiment: Neuroprotective activity in human SH-SY5Y cells assessed as reduction in oxygen-glucose deprivation-induced cytotoxicity at 10 uM relative to untreated control; assay type: functional, cell-based
SH-SY5Y [2] = experiment: Neuroprotective activity in human SH-SY5Y cells assessed as reduction in glutamate-induced cytotoxicity at 10 uM relative to untreated control; assay type: functional, cell-based
SH-SY5Y [3] = experiment: Neuroprotective activity in human SH-SY5Y cells assessed as reduction in hydrogen peroxide-induced cytotoxicity by measuring cell viability level at 10 uM (reference value: 50.7+/- 2.6%); assay type: functional
SH-SY5Y [4] = experiment: Cytotoxicity against human SH-SY5Y cells assessed as reduction in cell viability level at 10 uM relative to untreated control; assay type: cell-based

| SMILES | Activity (SH-SY5Y [1]) | Activity (SH-SY5Y [2]) | Activity (SH-SY5Y [3]) | Activity (SH-SY5Y [4]) |
| --- | --- | --- | --- | --- |
| COc1ccc(-c2cc(=O)c3c(O)cc(O[C@@H]4O[C@H](CO)[C@@H](O)[C@H](O)[C@H]4O)cc3o2)cc1O | inactive | inactive |  |  |
| O=c1cc(-c2ccc(O[C@@H]3O[C@H](CO)[C@@H](O)[C@H](O)[C@H]3O)c(O)c2)oc2cc(O[C@@H]3O[C@H](CO)[C@@H](O)[C@H](O)[C@H]3O)cc(O)c12 | inactive | inactive |  |  |
| O=C(/C=C/c1ccc(O)c(O)c1)O[C@@H]1C[C@](O)(C(=O)O)C[C@@H](O)[C@H]1O | inactive | inactive | inactive |  |
| CC(=O)O[C@@H]1[C@H](O)C[C@@](O)(C(=O)O)C[C@H]1OC(=O)/C=C/c1ccc(O)c(O)c1 | inactive | inactive |  | Toxic |
| O=C(/C=C/c1ccc(O)c(O)c1)O[C@@H]1C[C@@](O)(C(=O)O)C[C@@H](O)[C@@H]1OC(=O)[C@@H]1[C@@H](c2ccc(O)c(O)c2)[C@@]2(CO)C=CC(=O)[C@@H]1O2 | inactive | inactive | 75.6% |  |
| CC(=O)OC[C@H]1O[C@@H](Oc2cc(O)c3c(=O)cc(-c4ccc(O)c(O)c4)oc3c2)[C@H](O)[C@@H](O)[C@@H]1O | inactive | inactive |  |  |
| O=C(/C=C/c1ccc(O)c(O)c1)O[C@@H]1[C@H](O)C[C@@](O)(C(=O)O)C[C@H]1OC(=O)[C@@H]1[C@@H](c2ccc(O)c(O)c2)[C@@]2(CO)C=CC(=O)[C@@H]1O2 | inactive | inactive | 78.4% |  |
| O=c1cc(-c2ccc(O)c(O)c2)oc2cc(O[C@@H]3O[C@H](CO)[C@@H](O)[C@H](O)[C@H]3O)cc(O)c12 [GALUTEOLIN] | inactive | inactive | 87.6% |  |
| O=C(/C=C/c1ccc(O)c(O)c1)O[C@@H]1[C@H](O)C[C@@](O)(C(=O)O)C[C@H]1OC(=O)/C=C/c1ccc(O)c(O)c1 | inactive | inactive | 75.2% |  |
| CCCC[C@@H]1OC(=O)c2ccccc21 [(3S)-BUTYLPHTHALIDE] |  |  | 73.9% |  |
| O=C(O)[C@H]1O[C@@H](Oc2cc(O)c3c(=O)cc(-c4ccc(O)c(O)c4)oc3c2)[C@H](O)[C@@H](O)[C@@H]1O | inactive | inactive | 80.9% |  |
| O=C(/C=C/c1ccc(O)c(O)c1)O[C@@H]1[C@H](O)C[C@@](O)(C(=O)O)C[C@H]1OC(=O)[C@@H]1[C@@H]2O[C@@](CO)(C=CC2=O)[C@H]1c1ccc(O)c(O)c1 | inactive | inactive | 76.7% |  |
| O=c1cc(-c2ccc(O)cc2)oc2cc(O[C@@H]3O[C@H](CO)[C@@H](O)[C@H](O)[C@H]3O)cc(O)c12 | inactive | inactive |  |  |
| O=C(/C=C/c1ccc(O)c(O)c1)O[C@@H]1C[C@@](OC(=O)/C=C/c2ccc(O)c(O)c2)(C(=O)O)C[C@@H](O)[C@@H]1O [CYNARIN] | inactive | inactive | 77.2% |  |
